System: SNU761-TM4SF5
Assay: Western blotting of SLAMF7 expression, TM4SF5-expressing SNU761 cells
Format: cell-based, human
Settings: for expression level of SLAMF7 (WCL): whole-cell lysates, 24 hours (FIG. 15e-f)
Description: Cell extracts were obtained from cells grown to a density of 70-80% without any treatment, or from cells treated with vehicle DMSO or drugs at the given concentrations for 24 hours. For the extract of hepatocytes or liver cancer cells, a lysis buffer (150 mM NaCl, 1% NP-40, 50 mM Tris-HCl, 0.25% sodium deoxycholate, pH 7.4) including a protease inhibitor cocktail (GenDEPOT) was used. In addition, after washing animal liver tissue twice with PBS, SDS, Na3VO4, and protease inhibitor cocktails (GenDEPOT) were added to a lysis buffer [50 mM Tris-HCl, pH 7.4, 1% NP40, 0.25% sodium deoxycholate, 150 mM NaCl, 1 mM EDTA (based on 500 ml)], followed by treatment at 4°C for 15 minutes. After centrifugation at 13,000 rpm at 4°C for 30 minutes, only the supernatant was transferred to a new microcentrifuge tube. After quantification using BCA reagent (Thermo Scientific), a 4 × sample buffer [100% glycerol 4 ml, Tris-HCl, pH 6.8, 2.4 ml, SDS 0.8 g, Bromophenol blue 4 mg, betamercaptoethanol 0.4 ml, H2O 3.1 ml (based on 10 ml)] was added, followed by boiling at 100°C for 5 minutes. After performing SDS-PAGE electrophoresis with the above samples and transferring them to Nitrocellulose Membranes Protran™ nitrocellulose membranes (Whatman), pre-treatment was performed with 5% skim milk for 1 hour. After pre-treatment, primary antibodies of p-FAK(Y861) (SC-16663), p-FAK(Y577) (SC-16665), c-Src (SC-8056), STAT3 (SC-8019), p-AKT 1/2/3(S473) (SC-7985), STATS (SC-835), Laminin γ2 (SC-393225), COL1A1 (SC-28657), CCL5(RANTES) (SC-514019) CCL20(MIP-3α) (SC-517441), SIRT1 (SC-74465), ChREBP (SC-515922), SREBP1 (SC-366513), DGAT1 (SC-271934), DGAT2 (SC-293211), MICA/B (SC-137242), SLAMF7 (SC-390840), α-tublin (SC-5286), β-actin (SC-47778), FUCA (SC-365496) (the above from Santa Cruz Biotech, USA), p-FAK(Y397) (cat # 611723), FAK (cat # 610088), p27 (cat # 610242) (the above from BD Transduction, USA), p-FAK(Y925) (#3284) p-c-Src(Y416) (#2101), p-STAT3(Y705) (#9145), p70S6K1 (#9202), p-p70S6K1(T389) (#9205), p-STAT5(Y694) (#9314), ACC (#3676), FASN (#3189), CPT1A (#12252), p-ACC(S79) (#11818), HA (#3724), PD-L1 (#13684), PD-1 (#86163), p-ERK1/2(T202/Y204) (#9101s), ERK1/2 (#9102s) (the above from Cell Signaling Tech., USA), pS10p27(S10) (ab62364), human SLAMF6 (ab224201), TIGIT (ab233404), CD34 (ab81289) (the above from Abcam, UK), mouse SLAMF6 (PA5-87823), NKG2D (PA5-102038) (the above from Thermofisher, USA), α-SMA (Sigma Aldrich, A5228), CCL2 (Invitrogen, MA5-17040), and CD155(PVR) (Biolegend, 337601), HA (Biolegend, USA), Strep-HRP(horse-radish peroxidase), StrepMAB-HRP (IBA, USA), AFP (FineTest, FNab00203) were reacted at 4°C for 15 hours. The next day, secondary antibodies were reacted, and development was performed on X-ray film using ECL (Pierce, USA). […]
After 24 hours, vehicle DMSO, drug ST-1-025, or ST-5-002 was treated at the given concentrations. […] (f) After treating NK92-EV or NK92-TM4SF5 cells with DMSO or drugs ST-2-001 (1 nM), ST-3-005 (10 nM or 1 µM), ST-5-001, or ST-5-002 (100 nM or 1 µM) for 24 hours, the expression of SLAMF7 expressed on the cell surface was analyzed through immunostaining using flow cytometry. The expression level of SLAMF7 was confirmed by adding a SLAMF7 antibody to bind with SLAMF7 and then measuring the fluorescence linked to the SLAMF7 antibody using flow cytometry. […]

| Structure (SMILES) | expression level of SLAMF7 (WCL) | SLAMF7 expression level (SNU761-TM4SF5 (FIG. 13d)) | SLAMF7 expression decreased due to TM4SF5 (SNU761 with FLAG-SLAMF7 and HA-TM4SF5, given concentrations, 24 hours (FIG. 15d)) |
| --- | --- | --- | --- |
| COc1cccc(-c2cc(-c3ccc(NC(C)=O)cc3)no2)c1 [ST-3-001, N-(4-(5-(3-methoxyphenyl)isoxazole-3-yl)phenyl)acetamide] | did not show a recovery |  |  |
| Cc1ccc(C(=O)Nc2ccc(-c3cc(-c4ccc(O)cc4)no3)cc2)cc1 [ST-5-002, N-(4-(3-(4-hydroxyphenyl)isoxazole-5-yl)phenyl)-4-methylbenzamide] | increasing again | less lowered or remained high | showed a pattern of recovery |
